In article PMC11345841, “Exploring 2-Sulfonylpyrimidine Warheads as Acrylamide Surrogates for Targeted Covalent Inhibition: A BTK Story” (Journal of Medicinal Chemistry, 2024):
Where two headings read alike, the source gives them in different places.

Experiments:
[1] = biological target: T1, ABL1(H396P)-phosphorylated (Homo sapiens, UniProt P00519, H396P); test: KINOMEscan ScanTK; assay type: binding
T1 construct: purchased Eurofins DiscoverX KINOMEscan (scanTK)

[2] = biological target: T2, ABL1(T315I)-nonphosphorylated (Homo sapiens, UniProt P00519, T315I); test: KINOMEscan ScanTK; assay type: binding
T2 construct: purchased Eurofins DiscoverX KINOMEscan (scanTK)

EPHA1 = biological target: T3, EPHA1 (Homo sapiens, UniProt P21709); test: KINOMEscan ScanTK; assay type: binding
T3 construct: purchased Eurofins DiscoverX KINOMEscan (scanTK)
T3 sequence (P21709 26-976): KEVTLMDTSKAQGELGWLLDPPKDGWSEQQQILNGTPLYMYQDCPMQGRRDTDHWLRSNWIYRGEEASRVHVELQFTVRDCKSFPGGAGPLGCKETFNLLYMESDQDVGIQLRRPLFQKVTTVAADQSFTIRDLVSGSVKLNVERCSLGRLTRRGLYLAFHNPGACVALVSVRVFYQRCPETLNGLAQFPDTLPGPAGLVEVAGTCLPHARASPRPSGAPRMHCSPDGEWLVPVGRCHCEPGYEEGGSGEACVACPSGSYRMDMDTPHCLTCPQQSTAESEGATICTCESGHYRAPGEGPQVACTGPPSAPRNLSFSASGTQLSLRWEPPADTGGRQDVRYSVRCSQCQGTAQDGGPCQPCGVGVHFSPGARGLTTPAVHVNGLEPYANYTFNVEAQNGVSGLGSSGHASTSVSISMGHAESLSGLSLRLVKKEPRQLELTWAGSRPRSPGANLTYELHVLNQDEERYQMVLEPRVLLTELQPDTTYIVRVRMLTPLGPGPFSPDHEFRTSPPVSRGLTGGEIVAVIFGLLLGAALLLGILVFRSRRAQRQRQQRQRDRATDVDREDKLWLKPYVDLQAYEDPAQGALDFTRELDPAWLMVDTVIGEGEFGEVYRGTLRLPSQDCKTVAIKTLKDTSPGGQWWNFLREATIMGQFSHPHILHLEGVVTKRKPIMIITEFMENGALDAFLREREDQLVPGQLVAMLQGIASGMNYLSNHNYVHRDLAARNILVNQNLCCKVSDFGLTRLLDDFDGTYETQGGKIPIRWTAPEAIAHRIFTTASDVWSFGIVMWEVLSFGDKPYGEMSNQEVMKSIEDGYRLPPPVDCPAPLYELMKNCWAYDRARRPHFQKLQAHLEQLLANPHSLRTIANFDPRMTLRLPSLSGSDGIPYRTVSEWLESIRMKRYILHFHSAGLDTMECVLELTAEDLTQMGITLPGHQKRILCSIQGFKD

EPHA7 = biological target: T4, EPHA7 (Homo sapiens, UniProt Q15375); test: KINOMEscan ScanTK; assay type: binding
T4 construct: purchased Eurofins DiscoverX KINOMEscan (scanTK)
T4 sequence (Q15375 28-998): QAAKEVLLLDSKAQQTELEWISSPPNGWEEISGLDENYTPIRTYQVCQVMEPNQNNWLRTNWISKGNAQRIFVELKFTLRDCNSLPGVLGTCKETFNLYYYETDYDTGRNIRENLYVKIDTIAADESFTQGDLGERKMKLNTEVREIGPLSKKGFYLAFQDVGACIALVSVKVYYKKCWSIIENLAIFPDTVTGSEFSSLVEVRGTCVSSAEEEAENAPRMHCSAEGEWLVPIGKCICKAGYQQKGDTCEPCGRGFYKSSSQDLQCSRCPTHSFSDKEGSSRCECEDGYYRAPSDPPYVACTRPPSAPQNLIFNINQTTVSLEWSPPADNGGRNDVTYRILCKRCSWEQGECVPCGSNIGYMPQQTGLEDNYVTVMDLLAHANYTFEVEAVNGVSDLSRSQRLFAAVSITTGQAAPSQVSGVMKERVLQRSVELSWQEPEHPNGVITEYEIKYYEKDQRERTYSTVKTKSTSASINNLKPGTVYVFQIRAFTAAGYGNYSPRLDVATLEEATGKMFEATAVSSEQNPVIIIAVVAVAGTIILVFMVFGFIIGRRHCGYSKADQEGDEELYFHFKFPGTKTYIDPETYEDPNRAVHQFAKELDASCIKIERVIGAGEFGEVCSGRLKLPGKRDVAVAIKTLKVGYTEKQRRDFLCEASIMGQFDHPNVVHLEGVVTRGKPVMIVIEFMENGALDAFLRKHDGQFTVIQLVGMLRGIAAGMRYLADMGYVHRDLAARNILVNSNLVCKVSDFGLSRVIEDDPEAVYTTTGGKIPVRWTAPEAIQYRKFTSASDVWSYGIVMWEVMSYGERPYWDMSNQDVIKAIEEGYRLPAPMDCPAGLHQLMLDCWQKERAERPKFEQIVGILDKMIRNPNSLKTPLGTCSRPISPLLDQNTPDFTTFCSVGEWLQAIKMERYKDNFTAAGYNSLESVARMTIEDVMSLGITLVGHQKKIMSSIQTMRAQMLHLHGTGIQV

FGR = biological target: T5, FGR (Homo sapiens, UniProt P09769); test: KINOMEscan ScanTK; assay type: binding
T5 construct: purchased Eurofins DiscoverX KINOMEscan (scanTK)
T5 sequence (P09769 whole entry): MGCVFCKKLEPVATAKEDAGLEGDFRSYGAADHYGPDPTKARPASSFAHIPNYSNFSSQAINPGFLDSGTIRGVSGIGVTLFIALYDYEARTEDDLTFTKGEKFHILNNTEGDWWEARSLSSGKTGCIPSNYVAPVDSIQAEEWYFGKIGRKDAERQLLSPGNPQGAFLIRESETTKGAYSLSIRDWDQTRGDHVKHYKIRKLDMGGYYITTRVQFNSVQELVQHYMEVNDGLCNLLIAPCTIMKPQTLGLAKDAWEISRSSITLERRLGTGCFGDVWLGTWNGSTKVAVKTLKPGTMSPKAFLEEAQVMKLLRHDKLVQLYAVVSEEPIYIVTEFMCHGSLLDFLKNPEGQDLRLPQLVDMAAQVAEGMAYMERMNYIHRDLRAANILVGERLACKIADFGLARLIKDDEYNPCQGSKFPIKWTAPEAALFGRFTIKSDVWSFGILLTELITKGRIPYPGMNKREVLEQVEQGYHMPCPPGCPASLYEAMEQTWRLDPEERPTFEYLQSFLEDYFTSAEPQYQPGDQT

FLT3(ITD,D835V) = test: KINOMEscan ScanTK; assay type: binding
KIT = biological target: T6, KIT (Homo sapiens, UniProt P10721); test: KINOMEscan ScanTK; assay type: binding
T6 construct: purchased Eurofins DiscoverX KINOMEscan (scanTK)
T6 sequence (P10721 26-976): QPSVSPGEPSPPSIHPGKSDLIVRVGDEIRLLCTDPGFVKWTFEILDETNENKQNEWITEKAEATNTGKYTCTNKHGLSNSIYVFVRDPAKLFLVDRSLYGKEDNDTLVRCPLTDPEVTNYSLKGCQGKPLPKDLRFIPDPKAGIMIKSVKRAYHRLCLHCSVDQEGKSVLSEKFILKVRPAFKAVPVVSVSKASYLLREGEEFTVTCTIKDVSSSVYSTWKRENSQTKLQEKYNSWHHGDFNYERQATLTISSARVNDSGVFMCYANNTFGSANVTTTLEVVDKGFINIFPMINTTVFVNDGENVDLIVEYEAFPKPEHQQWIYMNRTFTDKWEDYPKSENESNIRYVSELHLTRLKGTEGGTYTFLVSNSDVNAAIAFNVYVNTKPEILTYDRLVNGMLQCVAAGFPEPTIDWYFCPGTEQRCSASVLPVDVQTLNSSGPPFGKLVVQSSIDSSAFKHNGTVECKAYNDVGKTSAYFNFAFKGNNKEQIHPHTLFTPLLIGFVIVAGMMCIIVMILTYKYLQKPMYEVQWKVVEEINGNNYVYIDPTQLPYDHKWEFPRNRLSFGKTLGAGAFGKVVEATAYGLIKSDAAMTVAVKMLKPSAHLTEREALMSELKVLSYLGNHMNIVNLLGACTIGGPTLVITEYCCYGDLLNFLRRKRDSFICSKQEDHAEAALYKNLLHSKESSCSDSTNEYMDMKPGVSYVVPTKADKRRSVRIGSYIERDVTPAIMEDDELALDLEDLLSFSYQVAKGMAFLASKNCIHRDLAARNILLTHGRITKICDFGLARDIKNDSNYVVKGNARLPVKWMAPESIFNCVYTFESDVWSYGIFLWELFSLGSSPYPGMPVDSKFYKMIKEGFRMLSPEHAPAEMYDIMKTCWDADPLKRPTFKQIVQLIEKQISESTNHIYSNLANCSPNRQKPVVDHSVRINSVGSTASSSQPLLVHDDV

LTK = biological target: T7, LTK (Homo sapiens, UniProt P29376); test: KINOMEscan ScanTK; assay type: binding
T7 construct: purchased Eurofins DiscoverX KINOMEscan (scanTK)
T7 sequence (P29376 17-864): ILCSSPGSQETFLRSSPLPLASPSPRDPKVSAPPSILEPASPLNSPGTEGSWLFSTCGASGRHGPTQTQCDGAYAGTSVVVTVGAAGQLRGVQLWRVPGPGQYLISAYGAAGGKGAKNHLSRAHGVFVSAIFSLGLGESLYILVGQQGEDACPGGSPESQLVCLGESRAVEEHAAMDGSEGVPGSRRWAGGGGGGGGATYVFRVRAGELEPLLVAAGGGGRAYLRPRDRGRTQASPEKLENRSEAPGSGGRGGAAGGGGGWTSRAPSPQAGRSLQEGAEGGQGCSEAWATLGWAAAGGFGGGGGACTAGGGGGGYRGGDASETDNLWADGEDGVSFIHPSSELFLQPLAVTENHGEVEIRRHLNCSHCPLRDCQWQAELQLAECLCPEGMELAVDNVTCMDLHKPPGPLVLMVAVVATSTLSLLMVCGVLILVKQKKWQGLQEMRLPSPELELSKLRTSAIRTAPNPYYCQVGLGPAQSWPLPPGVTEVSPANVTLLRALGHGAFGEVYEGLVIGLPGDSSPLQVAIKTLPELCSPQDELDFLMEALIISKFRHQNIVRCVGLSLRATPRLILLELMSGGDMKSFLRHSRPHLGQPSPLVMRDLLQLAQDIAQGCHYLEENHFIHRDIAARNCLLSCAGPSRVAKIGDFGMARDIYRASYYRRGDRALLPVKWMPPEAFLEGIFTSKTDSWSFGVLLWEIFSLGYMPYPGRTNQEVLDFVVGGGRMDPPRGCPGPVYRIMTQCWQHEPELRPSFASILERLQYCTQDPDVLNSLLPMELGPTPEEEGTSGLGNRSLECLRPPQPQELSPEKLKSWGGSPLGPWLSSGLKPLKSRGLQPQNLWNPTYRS

TNK1 = biological target: T8, TNK1 (Homo sapiens, UniProt Q13470); test: KINOMEscan ScanTK; assay type: binding
T8 construct: purchased Eurofins DiscoverX KINOMEscan (scanTK)
T8 sequence (Q13470 1-666): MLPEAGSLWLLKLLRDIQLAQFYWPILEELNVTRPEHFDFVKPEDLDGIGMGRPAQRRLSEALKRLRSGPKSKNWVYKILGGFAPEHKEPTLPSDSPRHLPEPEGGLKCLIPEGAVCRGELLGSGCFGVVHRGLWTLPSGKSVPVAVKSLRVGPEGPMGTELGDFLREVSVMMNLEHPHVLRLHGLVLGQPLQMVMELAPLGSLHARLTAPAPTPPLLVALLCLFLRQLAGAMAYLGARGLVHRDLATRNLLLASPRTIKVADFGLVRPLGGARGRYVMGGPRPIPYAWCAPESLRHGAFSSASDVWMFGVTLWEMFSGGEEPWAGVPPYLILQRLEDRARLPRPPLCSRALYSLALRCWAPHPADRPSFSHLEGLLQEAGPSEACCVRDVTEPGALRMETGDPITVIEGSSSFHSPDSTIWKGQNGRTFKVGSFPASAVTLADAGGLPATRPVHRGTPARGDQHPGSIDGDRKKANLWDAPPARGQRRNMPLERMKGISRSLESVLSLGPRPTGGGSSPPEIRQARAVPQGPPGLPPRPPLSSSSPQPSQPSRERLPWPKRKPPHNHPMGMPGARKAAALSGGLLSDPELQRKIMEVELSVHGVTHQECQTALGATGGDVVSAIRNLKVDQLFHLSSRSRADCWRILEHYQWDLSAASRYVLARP

BTK = biological target: T9, BTK (Homo sapiens, UniProt Q06187); test: KINOMEscan ScanTK; assay type: binding; details: for remaining binding at 1 µM: BTK
T9 construct: purchased Eurofins DiscoverX KINOMEscan (scanTK)
T9 sequence (Q06187 whole entry): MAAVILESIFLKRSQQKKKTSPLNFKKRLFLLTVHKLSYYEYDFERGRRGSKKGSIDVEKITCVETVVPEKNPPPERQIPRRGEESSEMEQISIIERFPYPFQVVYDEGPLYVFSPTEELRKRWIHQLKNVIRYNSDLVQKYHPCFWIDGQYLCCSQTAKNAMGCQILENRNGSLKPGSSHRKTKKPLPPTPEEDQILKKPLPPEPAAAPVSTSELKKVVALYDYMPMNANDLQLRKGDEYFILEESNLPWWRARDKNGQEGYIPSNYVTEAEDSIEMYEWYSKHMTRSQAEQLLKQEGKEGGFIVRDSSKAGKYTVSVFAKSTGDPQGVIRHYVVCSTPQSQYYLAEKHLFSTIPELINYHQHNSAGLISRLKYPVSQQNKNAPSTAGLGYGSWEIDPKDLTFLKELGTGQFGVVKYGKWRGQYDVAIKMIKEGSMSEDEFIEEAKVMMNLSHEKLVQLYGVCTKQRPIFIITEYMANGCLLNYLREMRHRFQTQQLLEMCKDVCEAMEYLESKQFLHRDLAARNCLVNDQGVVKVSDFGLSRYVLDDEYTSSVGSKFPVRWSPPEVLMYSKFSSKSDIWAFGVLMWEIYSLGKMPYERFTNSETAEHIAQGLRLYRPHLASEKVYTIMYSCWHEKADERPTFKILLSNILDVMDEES

RET(V804L) = biological target: T10, RET(V804L) (Homo sapiens, UniProt P07949, V804L); test: KINOMEscan ScanTK; assay type: binding
T10 construct: purchased Eurofins DiscoverX KINOMEscan (scanTK)
T10 sequence (P07949 29-1114 V804L): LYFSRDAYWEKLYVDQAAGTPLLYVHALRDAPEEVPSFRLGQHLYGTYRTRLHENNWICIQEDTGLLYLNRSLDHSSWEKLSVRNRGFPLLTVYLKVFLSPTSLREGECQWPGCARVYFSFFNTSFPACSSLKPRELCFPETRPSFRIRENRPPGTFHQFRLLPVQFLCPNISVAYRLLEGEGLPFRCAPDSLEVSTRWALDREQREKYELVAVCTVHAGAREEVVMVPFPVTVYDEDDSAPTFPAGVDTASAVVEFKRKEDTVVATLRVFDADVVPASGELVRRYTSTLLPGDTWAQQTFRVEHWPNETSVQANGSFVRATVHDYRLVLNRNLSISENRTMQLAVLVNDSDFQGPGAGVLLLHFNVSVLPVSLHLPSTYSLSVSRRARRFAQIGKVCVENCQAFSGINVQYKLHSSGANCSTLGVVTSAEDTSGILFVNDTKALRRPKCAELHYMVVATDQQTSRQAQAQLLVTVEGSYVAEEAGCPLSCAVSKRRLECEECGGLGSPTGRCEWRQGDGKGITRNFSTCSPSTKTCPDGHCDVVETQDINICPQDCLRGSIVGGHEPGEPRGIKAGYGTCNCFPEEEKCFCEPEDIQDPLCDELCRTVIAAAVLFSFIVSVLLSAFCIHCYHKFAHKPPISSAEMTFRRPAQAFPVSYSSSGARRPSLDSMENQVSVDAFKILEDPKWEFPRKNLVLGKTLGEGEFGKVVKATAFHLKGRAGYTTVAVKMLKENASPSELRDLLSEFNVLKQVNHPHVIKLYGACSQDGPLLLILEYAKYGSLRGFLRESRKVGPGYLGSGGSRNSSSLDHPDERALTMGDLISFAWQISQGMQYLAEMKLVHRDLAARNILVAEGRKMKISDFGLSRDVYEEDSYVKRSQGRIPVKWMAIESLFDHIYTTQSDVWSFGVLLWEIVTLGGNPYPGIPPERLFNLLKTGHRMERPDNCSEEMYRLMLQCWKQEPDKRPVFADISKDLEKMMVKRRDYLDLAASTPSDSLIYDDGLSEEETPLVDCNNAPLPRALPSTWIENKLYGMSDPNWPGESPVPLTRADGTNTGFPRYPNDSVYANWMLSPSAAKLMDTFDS

wild-type BTK = wild-type BTK (Homo sapiens, UniProt Q06187); test: NanoBRET target engagement assay in HEK293 cells
Chain of wild-type BTK (Q06187 whole entry): as the sequence (Q06187 whole entry) above

SMILES	remaining binding at 1 µM ([1]; @1000nM, read-out: %Control)	remaining binding at 1 µM ([1]; read-out: %Control @1000nM)	remaining binding at 1 µM ([2]; @1000nM, read-out: %Control)	remaining binding at 1 µM ([2]; read-out: %Control @1000nM)	remaining binding at 1 µM (EPHA1; @1000nM, read-out: %Control)	remaining binding at 1 µM (EPHA1; read-out: %Control @1000nM)	remaining binding at 1 µM (EPHA7; @1000nM, read-out: %Control)	remaining binding at 1 µM (EPHA7; read-out: %Control @1000nM)	%Control @1000nM (FLT3(ITD,D835V))	%Control (FLT3(ITD,D835V); @1000nM)	remaining binding at 1 µM (KIT; @1000nM, read-out: %Control)	remaining binding at 1 µM (KIT; read-out: %Control @1000nM)	remaining binding at 1 µM (LTK; @1000nM, read-out: %Control)	remaining binding at 1 µM (LTK; read-out: %Control @1000nM)	remaining binding at 1 µM (TNK1; @1000nM, read-out: %Control)	remaining binding at 1 µM (TNK1; read-out: %Control @1000nM)	other results
C=CC(=O)N1CCC[C@@H](n2nc(-c3ccc(Oc4ccccc4)cc3)c3c(N)ncnc32)C1 [Compound 1g, Ibrutinib, reference compound]	80%	80%	93%	93%	72%	72%	95%	95%	77%	77%	41%	41%	81%	81%	93%	93%	%Control @1000nM (FGR): 5.3%; %Control (FGR; @1000nM): 5.3%
Cc1cnc(S(C)(=O)=O)nc1N1CCCC(n2nc(-c3ccc(Oc4ccccc4)cc3)c3c(N)ncnc32)C1 (stereo not drawn) [Compound 8a, 1-(1-(5-Methyl-2-(methylsulfonyl)pyrimidin-4-yl)piperidin-3-yl)-3-(4-phenoxyphenyl)-1H-pyrazolo[3,4-d]pyrimidin-4-amine]	84%	84%	82%	82%	81%	81%	97%	97%	78%	78%	61%	61%	93%	93%	91%	91%	%Control difference versus compound Ib at 1 µM ([1]; @1000nM): 4%; difference in % of control versus compound Ib at 1 µM ([2]; @1000nM): -11%; remaining binding at 1 µM (BTK; @1000nM, read-out: % difference (compound - Ib %Control)): 0.1%; remaining binding at 1 µM (BTK; @1000nM, read-out: %Control): 0.1%; remaining binding at 1 µM (BTK; read-out: %Control @1000nM): 0.1%; inhibition at 1 µM (BTK; ScanTK, 1 μM): > 99%; difference in %Control versus compound Ib at 1 µM (EPHA1; @1000nM): 9%; difference in %Control versus compound Ib at 1 µM (EPHA7; @1000nM): 2%; difference in %Control versus compound Ib at 1 µM (FGR; @1000nM): 3.3%; remaining binding at 1 µM (FGR; @1000nM, read-out: %Control): 8.6%; remaining binding at 1 µM (FGR; read-out: %Control @1000nM): 8.6%; % difference (compound - Ib %Control) (FLT3(ITD,D835V); @1000nM): 1%; difference in %Control versus compound Ib at 1 µM (KIT; @1000nM): 20%; remaining binding at 1 µM (RET(V804L); @1000nM, read-out: %Control): 89%; remaining binding at 1 µM (RET(V804L); read-out: %Control @1000nM): 89%; IC50 (wild-type BTK): 8 ± 9 nM; NanoBRET IC50 (wild-type BTK; HEK293 cells, 1 h treatment): low to subnanomolar
